Laboratory results from ChEMBL document CHEMBL1765002, “Inhibitors of the oncogenic transcription factor AP-1 from Podocarpus latifolius” (J Nat Prod, 2011).
pIC50: −log10 of the molar value.

Molecular target: Transcription factor Jun (Homo sapiens, UniProt P05412)
Assay: Inhibition of TPA-induced AP-1 activation in cells expressing beta-lactamase after 18 hrs using FRET substrate by cell-based high-throughput screening assay

Transcription factor Jun, sequence (P05412 whole entry): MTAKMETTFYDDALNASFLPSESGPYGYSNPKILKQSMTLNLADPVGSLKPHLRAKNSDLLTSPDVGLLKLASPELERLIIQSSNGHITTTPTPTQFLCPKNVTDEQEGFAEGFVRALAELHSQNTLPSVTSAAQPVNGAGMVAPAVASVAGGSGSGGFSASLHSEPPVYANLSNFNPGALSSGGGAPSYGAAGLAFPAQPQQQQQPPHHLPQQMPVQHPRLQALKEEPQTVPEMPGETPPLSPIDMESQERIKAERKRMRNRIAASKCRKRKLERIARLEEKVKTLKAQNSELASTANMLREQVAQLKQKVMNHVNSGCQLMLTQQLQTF

Row | Structure (SMILES) | pIC50
1 | CC(C)[C@H]1OC(=O)C=C2[C@]3(C)[C@H]4[C@H](OC(=O)[C@@]4(C)[C@@H](O)[C@H]4O[C@H]43)[C@H]3O[C@]213 [INUMAKILACTONE] | 5.40
2 | CC(C)[C@H]1OC(=O)C=C2C1=C[C@H]1OC(=O)[C@@]3(C)CCC[C@@]2(C)[C@@H]13 [NAGILACTONE F] | 5.82
